Laboratory results taken from patent US9145424B2, “Treatment of amyotrophic lateral sclerosis” (Northwestern University, priority 2008, dated 2015).
In brackets after ≈: the same amount, converted by molar mass. Several values for one entry are separate records, joined by “and”; a condition that tells them apart may be missing. Equal entries are not always repeated. Where two headings read alike, the source gives them in different places.

Experiments:
G93A SOD1 ALS mice = experiment: Survival in the G93A SOD1 ALS mouse model; format: in vivo; conditions: 20 mg/kg
Method: The compounds identified were evaluated in the transgenic G93A ALS mouse model. ADME data was used to determine optimal route of administration. LD50 and maximally-tolerated dose were determined, and that information was used to design and execute pharmacokinetic studies to assess brain bioavailability, and to guide choice of dosing regimen (i.e., frequency, dose, route). […] This may include further dose optimization, phenotype assessment, comparison with compounds of established efficacy, and analysis of brain tissue in treated animals.
In the present study, G93A SOD1 mice and littermate controls were bred from existing colonies at the Bedford VA Medical Hospital. The male G93A SOD1 mice were mated with B6SJL females and the offspring were genotyped by PCR using tail DNA. […] Mice were housed in micro-isolator cages in complete barrier facilities. A 12 hour light-dark cycle was maintained and animals were given free access to food and water. Control and transgenic mice of the same age (±2 days) and from the same ‘f’ generation were selected from multiple litters to form experimental cohorts (n=20 per group). […]
Data sets are generated and analyzed for each clinical and neuropathological measure. […] Dose-dependent effects are assessed in each treatment group using multiple two-sided ANOVA tests. […]

[1] = In vitro microsomal stability, mouse; format: in vitro ADME; conditions: mouse, mouse liver microsomes; read-out: mouse metabolic potential T1/2
Method: (§1) Metabolism (microsome, S9 fraction, CYP450): Liver Cytochrome P450 (CYP450) enzymes are the major route for xenobiotic metabolism and microsomal and hepatocyte stability is the best predictor of pharmacokinetic half-life. Cross-species comparisons of metabolism in liver microsomes can predict potential issues with liver toxicity in humans. Selected active compounds are tested in liver microsomes from efficacy species (mouse), toxicity species (rat, dog, monkey), and humans for metabolic stability.
(§2) CMB-087229 was sent for an evaluation of its in vitro ADME properties.
(§3) Two possible amines, secondary and tertiary AAP analogues, were initially screened in the protection assay (FIG. 30) and for in vitro microsomal stability (Table 1) and Caco-2 permeability (Table 2). […] The solubilities of 2 and 3 were good in aqueous media (≧150 μM), and no precipitation occurred at the highest concentration. The in vitro plasma half-life for both compounds was >60 min.

[2] = system: PC12 cells that express mutant G93A SOD1; experiment: Mutant SOD1-induced cytotoxicity protection assay
Method: This idea was tested by examining the sensitivity of PC12 cells to SOD1 aggregates in the presence and absence of proteasome inhibitor MG132. PC12 cells expressing no SOD1, wild type SOD1, G85R SOD1 or G93A SOD1 were grown with or without MG132 (FIG. 1).
PC12 cells expressing G93A SOD1 were treated with 100 nM MG132 with or without co-treatment with geldanamycin or radicicol.

[3] = Metabolic half-life in rats; format: in vitro ADME; conditions: rat
From the text: as §2

Aqueous solubility = format: physicochemical
Method: Solubility: Because compounds are stored in DMSO, it is necessary to determine aqueous solubility of initial hit compounds and their analogs. High solubility in aqueous solution is necessary for high GI absorption, bioavailability, and for chemical formulation. Compounds should be soluble in aqueous solution at >10 μg/ml. Solubility of >50 μg/ml is preferred.

in vivo = conditions: mouse
[4] = Brain uptake procedure, LCMS of brain and plasma; format: in vivo, mice (Tg6799 colony with B6/SJL background); conditions: 1 mg/kg i.p.; for concentration at 10 min / Kp at 10 min: Tg6799 colony with B6/SJL background, mouse, intraperitoneal, 1 mg/kg; for Kp at 10 min: brain/plasma
Method: CMB-087229 Mice Brain and Plasma Data CMB-087229 (1 mg/kg) was administrated to mice (Tg6799 colony with B6/SJL background) by intraperitoneal injection in a 60% PBS and 40% dimethyl sulfoxide solution. At 10 minutes after compound administration the mice were sacrificed. Blood was harvested and plasma was transferred to flash freeze in liquid nitrogen after centrifugation. Mice were perfused. The brain was homogenized in 100% acetonitrile. CMB-003319 (0.5 μg, 1.73 nmol) was added as an internal standard. The homogenates were centrifuged at 12000×g for 12 min, and the supernatant was evaporated. The residue was reconstituted in 33.3% acetonitrile. Solid phase extraction followed by LCMS (API 300 liquid chromatography-tandem mass spectrometry system, Applied Biosystems, Foster City, Calif.; Agilent 1100 series HPLC system, Agilent Technologies, Wilmington, Del.) was used to quantify the amount of CMB-087229 in mouse brain. Solid-phase extraction cartridges (Sep-Pak C18, Water Associates, Milford, Mass.) were washed with 1 mL acetonitrile and equilibrated with 1 mL of water. The reconstituted supernatant was then loaded, washed with 1 mL×2 of 33.3% acetonitrile. CMB-087229 was then dried and submitted for LCMS.

[5] = In vitro plasma stability; format: in vitro ADME; conditions: plasma; read-out: plasma stability T1/2
Method: Plasma stability: Plasma stability of active compounds is assessed in efficacy species (mouse), toxicity species (rat, dog, monkey), and human cells.

[6] = In vitro Caco-2 permeability; format: in vitro ADME; conditions: human, Caco-2
Method: General Permeability: High membrane permeability is required for effective GI absorption and optimal bioavailability. Passive permeability is typically assessed in the PAMPA artificial membrane assay (Kansy et al., J. Med. Chem. 2002, 45(8), 1712-1722). Cell-based permeability determinations using the Caco-2 cell assay are more resource intensive but more predictive of active transport or efflux in vivo (Artursson et al., Adv. Drug. Deliv. Rev. 2001, 46(1-3), 27-43). Caco-2 assays are performed as needed during SAR development.

[7] = In vitro microsomal stability, human; format: in vitro ADME; conditions: human, human liver microsomes; read-out: human metabolic potential T1/2
Method: as §1, §2, §3

O=c1cc(COc2cc(Cl)cc(Cl)c2)[nH][nH]1 [CMB-087229]
extension in survival (G93A SOD1 ALS mice): 13.4% | half-life [1]: 0.6 h | potency (ED50) [2]: 0.074 µM | half-life [3]: ~2 h | aqueous solubility (Aqueous solubility): 250 µM (≈ 64.8 µg/mL) | Kp (in vivo): ~0.55 | concentration at 4 h (in vivo; concentration in the brain): 194 µM | concentration at 3 h (in vivo; plasma concentration): 342 µM | concentration at 6 h (in vivo; plasma concentration): 347 µM | concentration at 12 h (in vivo; plasma concentration): 248 µM | concentration at 24 h (in vivo; plasma concentration): 1.68 µM | Brain Extract concentration ([4]; 10 minutes, single mice): 0.159 µg/mL and 0.187 µg/mL | Brain concentration ([4]; 10 minutes, single mice): 0.366 µg/g and 0.467 µg/g | Brain/plasma Ratio July ([4]; 10 minutes, single mice): 4.10 and 3.13 | Plasma concentration July ([4]; 10 minutes, single mice): 0.0892 µg/mL and 0.149 µg/mL | concentration at 10 min ([4]; brain extract, 10 minutes, single mice, read-out: Brain Extract concentration): 0.121 µg/mL | concentration at 10 min ([4]; brain, 10 min July, read-out: Brain concentration (Mean ± S.E.)): 363 ± 105 ng/g | concentration at 10 min ([4]; brain, 10 minutes, single mice, read-out: Brain concentration): 257 ng/g | Kp at 10 min ([4]; 10 min July, read-out: Brain/Plasma Ratio (Mean ± S.E.)): 3.36 ± 0.66 | Kp at 10 min ([4]; 10 minutes, single mice, read-out: Brain/plasma Ratio July): 2.84 | concentration at 10 min ([4]; plasma, 10 min July, read-out: Plasma concentration (Mean ± S.E.)): 0.11 ± 0.0342 µg/mL | concentration at 10 min ([4]; plasma, 10 minutes, single mice, read-out: Plasma concentration July): 0.0904 µg/mL | half-life [5]: 0.283 h | Papp (A→B) [6]: 370 nm/s | half-life [7]: 1.55 h
